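In this assay, cells in 96-well plates receive the compound at five concentrations for 48 hours. Endpoints are linearly interpolated between the surrounding concentrations. At the GI50, growth is halved. TGI: total growth inhibition.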
Legend:
Assay in all cases: DTP human tumour cell line panel, 48 h
786-0 renal = system: 786-0 renal
A498 renal = system: A498 renal
A549 NSCLC = system: A549 NSCLC
ACHN renal = system: ACHN renal
BT-549 breast = system: BT-549 breast
CAKI-1 renal = system: CAKI-1 renal
CCRF-CEM leukemia = system: CCRF-CEM leukemia
COLO 205 colon = system: COLO 205 colon
DU-145 prostate = system: DU-145 prostate
EKVX NSCLC = system: EKVX NSCLC
HCC-2998 colon = system: HCC-2998 colon
HCT-116 colon = system: HCT-116 colon
HCT-15 colon = system: HCT-15 colon
HL-60(TB) leukemia = system: HL-60(TB) leukemia
HOP-62 NSCLC = system: HOP-62 NSCLC
HOP-92 NSCLC = system: HOP-92 NSCLC
HS 578T breast = system: HS 578T breast
HT29 colon = system: HT29 colon
IGROV1 ovarian = system: IGROV1 ovarian
K-562 leukemia = system: K-562 leukemia
KM12 colon = system: KM12 colon
LOX IMVI melanoma = system: LOX IMVI melanoma
M14 melanoma = system: M14 melanoma
MALME-3M melanoma = system: MALME-3M melanoma
MCF7 breast = system: MCF7 breast
MDA-MB-231 breast = system: MDA-MB-231 breast
MDA-MB-435 = system: MDA-MB-435
MDA-MB-468 breast = system: MDA-MB-468 breast
NCI-H226 lung = system: NCI-H226 lung
NCI-H23 lung = system: NCI-H23 lung
NCI-H522 lung = system: NCI-H522 lung
NCI/ADR-RES ovarian = system: NCI/ADR-RES ovarian
OVCAR-3 ovarian = system: OVCAR-3 ovarian
OVCAR-4 ovarian = system: OVCAR-4 ovarian
OVCAR-5 ovarian = system: OVCAR-5 ovarian
OVCAR-8 ovarian = system: OVCAR-8 ovarian
PC-3 prostate = system: PC-3 prostate
RPMI-8226 leukemia = system: RPMI-8226 leukemia
RXF 393 renal = system: RXF 393 renal
SF-268 CNS = system: SF-268 CNS
SF-295 CNS = system: SF-295 CNS
SF-539 CNS = system: SF-539 CNS
SK-MEL-2 melanoma = system: SK-MEL-2 melanoma
SK-MEL-28 melanoma = system: SK-MEL-28 melanoma
SK-MEL-5 melanoma = system: SK-MEL-5 melanoma
SK-OV-3 ovarian = system: SK-OV-3 ovarian
SN12C renal = system: SN12C renal
SNB-19 CNS = system: SNB-19 CNS
SNB-75 CNS = system: SNB-75 CNS
T-47D breast = system: T-47D breast
TK-10 renal = system: TK-10 renal
U251 CNS = system: U251 CNS
UACC-257 melanoma = system: UACC-257 melanoma
UACC-62 melanoma = system: UACC-62 melanoma
UO-31 renal = system: UO-31 renal

**Q.** With `Cn1cc(-c2cc(N)n3nc(-c4c[nH]c5ccccc45)cc3n2)c2cc(Br)cnc21` as the compound, how does the GI50 (786-0 renal) read?
**A.** 1.81 µM

**Q.** What about the TGI (786-0 renal) of the same compound?
**A.** 3.45 µM

**Q.** What about the GI50 (A498 renal) of the same compound?
**A.** 4.9 µM

**Q.** What about the TGI (A498 renal) of the same compound?
**A.** 19.1 µM

**Q.** And the GI50 (A549 NSCLC)?
**A.** 2.78 µM

**Q.** And the TGI (A549 NSCLC)?
**A.** 11.1 µM

**Q.** What about the GI50 (ACHN renal) of the same compound?
**A.** 2.17 µM

**Q.** And the TGI (ACHN renal)?
**A.** 6.21 µM

**Q.** And the GI50 (BT-549 breast)?
**A.** 4.1 µM

**Q.** And the TGI (BT-549 breast)?
**A.** 18 µM

**Q.** What about the GI50 (CAKI-1 renal) of the same compound?
**A.** 1.69 µM

**Q.** And the TGI (CAKI-1 renal)?
**A.** 3.87 µM

**Q.** What about the GI50 (CCRF-CEM leukemia) of the same compound?
**A.** 3.71 µM

**Q.** What about the TGI (CCRF-CEM leukemia) of the same compound?
**A.** > 100 µM

**Q.** And the GI50 (COLO 205 colon)?
**A.** 1.96 µM

**Q.** What about the TGI (COLO 205 colon) of the same compound?
**A.** 3.59 µM

**Q.** And the GI50 (DU-145 prostate)?
**A.** 3.58 µM

**Q.** What about the TGI (DU-145 prostate) of the same compound?
**A.** 12.2 µM

**Q.** What about the GI50 (EKVX NSCLC) of the same compound?
**A.** 3.14 µM

**Q.** What about the TGI (EKVX NSCLC) of the same compound?
**A.** 13.7 µM

**Q.** And the GI50 (HCC-2998 colon)?
**A.** 1.65 µM

**Q.** And the TGI (HCC-2998 colon)?
**A.** 3.08 µM

**Q.** And the GI50 (HCT-116 colon)?
**A.** 1.82 µM

**Q.** And the TGI (HCT-116 colon)?
**A.** 3.39 µM

**Q.** And the GI50 (HCT-15 colon)?
**A.** 1.7 µM

**Q.** And the TGI (HCT-15 colon)?
**A.** 3.51 µM

**Q.** And the GI50 (HL-60(TB) leukemia)?
**A.** 2.01 µM

**Q.** And the TGI (HL-60(TB) leukemia)?
**A.** 4.67 µM

**Q.** And the GI50 (HOP-62 NSCLC)?
**A.** 2.12 µM

**Q.** What about the TGI (HOP-62 NSCLC) of the same compound?
**A.** 5.44 µM

**Q.** What about the GI50 (HOP-92 NSCLC) of the same compound?
**A.** 1.65 µM

**Q.** What about the TGI (HOP-92 NSCLC) of the same compound?
**A.** 3.44 µM

**Q.** And the GI50 (HS 578T breast)?
**A.** 2.61 µM

**Q.** And the TGI (HS 578T breast)?
**A.** 14.9 µM

**Q.** And the GI50 (HT29 colon)?
**A.** 1.8 µM

**Q.** And the TGI (HT29 colon)?
**A.** 3.61 µM

**Q.** What about the GI50 (IGROV1 ovarian) of the same compound?
**A.** 3.29 µM

**Q.** And the TGI (IGROV1 ovarian)?
**A.** 13.2 µM

**Q.** What about the GI50 (K-562 leukemia) of the same compound?
**A.** 2.88 µM

**Q.** And the TGI (K-562 leukemia)?
**A.** > 100 µM

**Q.** And the GI50 (KM12 colon)?
**A.** 1.79 µM

**Q.** What about the TGI (KM12 colon) of the same compound?
**A.** 3.98 µM

**Q.** And the GI50 (LOX IMVI melanoma)?
**A.** 1.64 µM

**Q.** What about the TGI (LOX IMVI melanoma) of the same compound?
**A.** 2.99 µM

**Q.** What about the GI50 (M14 melanoma) of the same compound?
**A.** 1.91 µM

**Q.** And the TGI (M14 melanoma)?
**A.** 3.87 µM

**Q.** What about the GI50 (MALME-3M melanoma) of the same compound?
**A.** 2.14 µM

**Q.** And the TGI (MALME-3M melanoma)?
**A.** 4.52 µM

**Q.** And the GI50 (MCF7 breast)?
**A.** 1.95 µM

**Q.** And the TGI (MCF7 breast)?
**A.** 4.58 µM

**Q.** And the GI50 (MDA-MB-231 breast)?
**A.** 1.79 µM

**Q.** And the TGI (MDA-MB-231 breast)?
**A.** 3.91 µM

**Q.** What about the GI50 (MDA-MB-435) of the same compound?
**A.** 1.93 µM

**Q.** And the TGI (MDA-MB-435)?
**A.** 3.96 µM

**Q.** What about the GI50 (MDA-MB-468 breast) of the same compound?
**A.** 2.23 µM

**Q.** And the TGI (MDA-MB-468 breast)?
**A.** 5.42 µM

**Q.** What about the GI50 (NCI-H226 lung) of the same compound?
**A.** 3.29 µM

**Q.** What about the TGI (NCI-H226 lung) of the same compound?
**A.** 16.3 µM

**Q.** What about the GI50 (NCI-H23 lung) of the same compound?
**A.** 1.87 µM

**Q.** And the TGI (NCI-H23 lung)?
**A.** 4.16 µM

**Q.** And the GI50 (NCI-H522 lung)?
**A.** 1.84 µM

**Q.** And the TGI (NCI-H522 lung)?
**A.** 3.67 µM

**Q.** And the GI50 (NCI/ADR-RES ovarian)?
**A.** 2.21 µM

**Q.** What about the TGI (NCI/ADR-RES ovarian) of the same compound?
**A.** 5.16 µM

**Q.** What about the GI50 (OVCAR-3 ovarian) of the same compound?
**A.** 1.74 µM

**Q.** And the TGI (OVCAR-3 ovarian)?
**A.** 3.37 µM

**Q.** And the GI50 (OVCAR-4 ovarian)?
**A.** 2.7 µM

**Q.** And the TGI (OVCAR-4 ovarian)?
**A.** 9.4 µM

**Q.** And the GI50 (OVCAR-5 ovarian)?
**A.** 1.82 µM

**Q.** What about the TGI (OVCAR-5 ovarian) of the same compound?
**A.** 4.94 µM

**Q.** And the GI50 (OVCAR-8 ovarian)?
**A.** 3.22 µM

**Q.** What about the TGI (OVCAR-8 ovarian) of the same compound?
**A.** 15.2 µM

**Q.** What about the GI50 (PC-3 prostate) of the same compound?
**A.** 2.41 µM

**Q.** What about the TGI (PC-3 prostate) of the same compound?
**A.** 7.91 µM

**Q.** And the GI50 (RPMI-8226 leukemia)?
**A.** 3.07 µM

**Q.** What about the TGI (RPMI-8226 leukemia) of the same compound?
**A.** 10.5 µM

**Q.** And the GI50 (RXF 393 renal)?
**A.** 2.54 µM

**Q.** What about the TGI (RXF 393 renal) of the same compound?
**A.** 6.15 µM

**Q.** And the GI50 (SF-268 CNS)?
**A.** 2.42 µM

**Q.** And the TGI (SF-268 CNS)?
**A.** 7.66 µM

**Q.** And the GI50 (SF-295 CNS)?
**A.** 1.81 µM

**Q.** And the TGI (SF-295 CNS)?
**A.** 3.87 µM

**Q.** What about the GI50 (SF-539 CNS) of the same compound?
**A.** 1.67 µM

**Q.** And the TGI (SF-539 CNS)?
**A.** 3.11 µM

**Q.** What about the GI50 (SK-MEL-2 melanoma) of the same compound?
**A.** 1.99 µM

**Q.** And the TGI (SK-MEL-2 melanoma)?
**A.** 4.48 µM

**Q.** And the GI50 (SK-MEL-28 melanoma)?
**A.** 2.18 µM

**Q.** What about the TGI (SK-MEL-28 melanoma) of the same compound?
**A.** 5.6 µM

**Q.** What about the GI50 (SK-MEL-5 melanoma) of the same compound?
**A.** 3.46 µM

**Q.** And the TGI (SK-MEL-5 melanoma)?
**A.** 13.9 µM

**Q.** And the GI50 (SK-OV-3 ovarian)?
**A.** 5.91 µM

**Q.** What about the TGI (SK-OV-3 ovarian) of the same compound?
**A.** 34.8 µM

**Q.** And the GI50 (SN12C renal)?
**A.** 5.02 µM

**Q.** And the TGI (SN12C renal)?
**A.** 21.1 µM

**Q.** What about the GI50 (SNB-19 CNS) of the same compound?
**A.** 2.76 µM

**Q.** What about the TGI (SNB-19 CNS) of the same compound?
**A.** 8.76 µM

**Q.** And the GI50 (SNB-75 CNS)?
**A.** 1.7 µM

**Q.** What about the TGI (SNB-75 CNS) of the same compound?
**A.** 17.1 µM

**Q.** What about the GI50 (T-47D breast) of the same compound?
**A.** 3.22 µM

**Q.** What about the TGI (T-47D breast) of the same compound?
**A.** 14.3 µM

**Q.** And the GI50 (TK-10 renal)?
**A.** 2.69 µM

**Q.** And the TGI (TK-10 renal)?
**A.** 6.3 µM

**Q.** What about the GI50 (U251 CNS) of the same compound?
**A.** 2.02 µM

**Q.** What about the TGI (U251 CNS) of the same compound?
**A.** 4.53 µM

**Q.** What about the GI50 (UACC-257 melanoma) of the same compound?
**A.** 3.5 µM

**Q.** And the TGI (UACC-257 melanoma)?
**A.** 18.4 µM

**Q.** What about the GI50 (UACC-62 melanoma) of the same compound?
**A.** 1.66 µM

**Q.** What about the TGI (UACC-62 melanoma) of the same compound?
**A.** 3.28 µM

**Q.** What about the GI50 (UO-31 renal) of the same compound?
**A.** 2.48 µM

**Q.** What about the TGI (UO-31 renal) of the same compound?
**A.** 10.6 µM

Source: PubChem BioAssay (NCI)
